The subject of one test is U87-S3C cells. The test is described as follows: Cell spreading assay on myelin. It counts as cell-based. Conditions: recombinant human IL-8 50 ng/ml vs untreated U87-S3C cells on myelin; n=3, p<0.0005. As to the method:
FIG. 4I is a graph quantifying the level of normalized cell spreading. IL-8 addition rescues STAT3 suppression of glioma cell spreading on myelin.
1×10^4 cells were seeded onto glass coverslips pre-coated with polyornithine ([…]) and additionally coated with PBS or 20 μg/ml myelin. Where indicated recombinant human IL-8 (R&D) was added at a concentration of 50 ng/ml. Cells were incubated at 37° C. for 1 hour to attach and then fixed with 4% paraformaldehyde for 20 minutes at RT. Coverslips were stained with phallotoxin for 20 minutes according to the manufacturer's directions (Molecular probes). Nuclei were counterstained with 0.2 μg/ml Hoechst (Sigma). Spread versus unspread cells were counted blind, and a percentage of spread cells over the total number of cells calculated. Pictures were taken at 60× using a Nikon inverted microscope.

Test [1] relates to control neuroblastoma cell line SK-N-MC. Description: LIF-induced STAT3 tyrosine phosphorylation, immunoblot. Conditions: serum starved 24 hours, 10 ng/ml LIF for 15 minutes. In kind it is cell-based. A general note: A western blot detects proteins with antibodies after separation by electrophoresis.
Test [2] deals with PTEN-deficient glioma cells (U87, A172, and U138). The description is as above. It counts as cell-based, human. To be noted: serum starved 24 hours, 10 ng/ml LIF for 15 minutes. As to the method: (§1) FIG. 2A is a series of immunoblots showing the levels of PYS3 and STAT3 in glioma cells that harbor PTEN mutations (U87, A172, and U138) or that express wild type PTEN (SF188 and LN229) with the STAT3 and PYS3 antibodies. Cells were serum starved for 24 hours and then treated with 100 ng/ml CNTF (C) or 10 ng/ml LIF (L) for 15 minutes.
(§2) The inhibition of the STAT3 signaling pathway was also evident in human glioma cell lines that harbor PTEN mutations.

The subject of test [3] is wild type PTEN-expressing glioma cells (SF188 and LN229). Described as above. It counts as cell-based, human. Conditions: serum starved 24 hours, 10 ng/ml LIF for 15 minutes. As to the method: as §1, §2
The next test has as its system SF188 cells. Description: Growth curve / population growth with LIF. In kind it is cell-based, human. The protocol: (§3) FIG. 2B is a series of graphs showing growth curves of PTEN-mutant glioma cell lines (U87 and A172) and PTEN-expressing (SF188) glioma cells lines that were treated with LIF (10 ng/ml daily) or left untreated.
FIG. 2C is a bar graph showing the population growth of SF188 cells infected with a retrovirus containing an IRES-GFP cassette alone or that also encodes wild type STAT3 or a dominant negative STAT3 (S3D).

The next test has as its system A172 cells. Description: Growth curve with LIF. It counts as cell-based, human. Conditions: LIF 10 ng/ml daily; PTEN-deficient cell line. As to the method: as §3
In the next test the test system is U87 cells. Description: Growth curve with LIF. It counts as cell-based, human. To be noted: LIF 10 ng/ml daily; PTEN-deficient cell line. The protocol:
as §3

The next test has as its system LN229 cells. Description: Population growth with LIF after lentiviral infection. In kind it is cell-based, human. Conditions: LIF 10 ng/ml daily; control lentivirus-infected LN229; n=3, p<0.05. From the text:
FIG. 2D is a pair of immmunoblots showing STAT3 and actin levels in 293T cells infected with either control lentivirus or lentivirus encoding one of two small interfering hairpin RNAs directed at STAT3 and selected with puromycin (left panel). […] The right panel is a graph showing population growth of LN229 cells infected with control lentivirus or lentivirus encoding stat3i1 or stat3i2 and selected with puromycin.
Recombinant retroviruses were made by transfecting 293T cells with pMD.MLV gag.pol, pHDM.G (VSVG pseudotype), and the transfer plasmid (i.e. pBABE). Cells were infected with equal amounts of retroviruses in the presence of 8 μg/ml polybrene (Sigma). A population of infected cells for each construct was collected by sorting cells for GFP expression. PTEN−/− astrocytes were infected with pBABE or pBABE/S3C retroviruses and infected cells were selected with puromycin (4 μg/ml). PTEN flox/flox astrocytes were infected with MyrAkt and infected cells were selected with 250 μg/ml hygromycin (Invitrogen). Cloning of recombinant lentiviruses coding for a short hairpin RNA directed against STAT3 or human IL-8 was carried out using the pLL3.7 vector. […]

A further test deals with rat neural stem cells. Description: BrdU incorporation with LIF. In kind it is cell-based. To be noted: LIF 10 ng/ml, 48 hrs; vector-infected cells vs no treatment; n=3, p<0.05. As to the method:
FIG. 2E (right panel) is a bar graph showing BrdU incorporation in rat neural stem cells treated with LIF (10 ng/ml, 48 hrs) following infection with lentivirus and selection with puromycin.
Background: Dividing cells build labelled thymidine or BrdU into new DNA.

Consider “IL-8: recombinant human IL-8 (R&D) added at 50 ng/ml”, for which, in the test on U87-S3C cells, the “cell spreading on myelin” value was “significantly more U87-S3C cells spread on myelin”.

“LIF: cytokine ligand of leukemia inhibitory factor receptorβ (LIFRβ), used at 10 ng/ml”: the figures for the STAT3 tyrosine phosphorylation result in [1], in [2] and in test [3] were “robustly induced STAT3 tyrosine phosphorylation”, “failed to effectively induce the STAT3 phosphorylation” and “robustly induced STAT3 tyrosine phosphorylation”, respectively. Besides, the cell population growth entry with SF188 cells (LIF 10 ng/ml daily vs untreated, n=3, p<0.05) is “significantly reduced”. Further, the population growth result in the test on SF188 cells (LIF 10 ng/ml daily, SF188 infected with control-vector or wild type STAT3 retrovirus, n=3, p<0.01) is given as “significant reduction in population growth”; with LN229 cells it was “significant reduction in growth”. In addition, the proliferation result in the test on A172 cells and with U87 cells was “little effect on the proliferation” throughout. The BrdU incorporation entry with rat neural stem cells is given as “significantly less BrdU incorporation”.
